Patent publication US10851093B2, “Tyrosine kinase inhibitors” (Rigel Pharmaceuticals, Inc., priority 2018, dated 2020)

Columns and labels:
MerTK = target: T1, MerTK (Homo sapiens, UniProt Q12866); experiment: Phospho-AKT HTRF, HUVEC, Mer-XL, 8 pt (pAKT HTRF-HUVEC assay, anti-human MerTK-XL stimulation); assay type: cell-based; details: HUVEC cells, pAkt(Ser473) HTRF, anti-human MerTK-XL stimulation 1 ug/mL 10 minutes
T1 construct: Seed HUVECs (10K cells/well) in EBM-2 complete media; host or cells: HUVEC
T1 sequence (Q12866 21-999): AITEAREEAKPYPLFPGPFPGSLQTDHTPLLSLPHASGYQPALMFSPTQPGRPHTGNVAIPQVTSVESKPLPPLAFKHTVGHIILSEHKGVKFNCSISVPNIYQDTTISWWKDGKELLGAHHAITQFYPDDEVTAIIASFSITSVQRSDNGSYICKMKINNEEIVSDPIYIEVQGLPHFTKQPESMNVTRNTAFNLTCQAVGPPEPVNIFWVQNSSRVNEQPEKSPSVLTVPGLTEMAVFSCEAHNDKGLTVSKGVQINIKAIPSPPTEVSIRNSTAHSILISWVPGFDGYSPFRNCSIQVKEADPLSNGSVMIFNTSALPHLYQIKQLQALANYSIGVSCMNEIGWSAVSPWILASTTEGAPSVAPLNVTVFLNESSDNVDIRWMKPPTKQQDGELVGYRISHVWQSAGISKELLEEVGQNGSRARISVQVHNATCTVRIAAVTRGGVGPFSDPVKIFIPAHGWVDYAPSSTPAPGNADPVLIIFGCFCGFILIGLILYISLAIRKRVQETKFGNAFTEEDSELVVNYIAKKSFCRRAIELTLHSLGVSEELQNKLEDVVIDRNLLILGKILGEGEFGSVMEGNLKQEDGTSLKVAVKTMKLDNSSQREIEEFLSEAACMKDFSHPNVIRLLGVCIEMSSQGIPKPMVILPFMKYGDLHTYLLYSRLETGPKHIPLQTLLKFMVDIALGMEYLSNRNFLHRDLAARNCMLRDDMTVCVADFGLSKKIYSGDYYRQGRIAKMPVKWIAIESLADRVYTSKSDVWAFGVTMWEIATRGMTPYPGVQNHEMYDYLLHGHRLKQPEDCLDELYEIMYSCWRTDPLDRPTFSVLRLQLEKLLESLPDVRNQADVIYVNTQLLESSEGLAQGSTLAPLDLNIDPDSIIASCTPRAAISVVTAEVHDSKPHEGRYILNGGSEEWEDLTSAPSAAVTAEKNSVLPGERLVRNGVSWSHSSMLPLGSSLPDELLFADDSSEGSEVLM
Description: (§1) Example 13: PAKT HTRF-HUVEC Assay
(§2) Seed HUVECs (10K cells/well) in EBM-2 complete media (EBM-2 basal medium plus EGM-2 BulletKit supplements) overnight at 37° C., 5% CO2 in Costar 96-well white clear-bottom plates. Remove culture media and starve cells for 3-4 hours in 50 μL/well EBM-2 basal medium. Perform serial dilution of compounds in DMSO from 2.5 mM in 4-fold dilutions, and then dilute 1:125 in EBM-2 basal media. Mix 50 μL/well 2× compounds with 50 μL/well HUVECs in duplicate in Costar 96-well white clear-bottom plates. Incubate plates for 1 hour at 37° C., 5% CO2. Cross-link anti-human MerTK antibody to Biotin-SP-conjugated anti-mouse IgG antibody (1:1) to give final concentrations of 5 μg/mL of anti-human MerTK-XL. Stimulate HUVECs with 25 μL/well 5× anti-human MerTK-XL to give final concentrations of 1 ug/mL for 10 minutes at 37° C., 5% CO2. Completely remove media and lyse HUVECs with 40 uL:WELL per well of Cisbio HTRF 1× lysis buffer. Performed pAkt(Ser473) HTRF assay in ProxiPlate-384 Plus, white 384-shallow well microplate according to the vendor protocol and read plates with a SpectralMax Paradigm plate reader. Enter the HTRF values into Athena (Rigel) for curve fitting, EC50 calculation, and database storage.

Axl = target: T2, Axl (Homo sapiens, UniProt P30530); experiment: Phospho-AKT HTRF, HUVEC, Axl ABX-L, 8 pt; assay type: cell-based; details: HUVEC cells, pAkt(Ser473) HTRF, Axl ABX-L stimulation
T2 construct: Seed HUVECs (10K cells/well) in EBM-2 complete media; host or cells: HUVEC
T2 sequence (P30530 26-894): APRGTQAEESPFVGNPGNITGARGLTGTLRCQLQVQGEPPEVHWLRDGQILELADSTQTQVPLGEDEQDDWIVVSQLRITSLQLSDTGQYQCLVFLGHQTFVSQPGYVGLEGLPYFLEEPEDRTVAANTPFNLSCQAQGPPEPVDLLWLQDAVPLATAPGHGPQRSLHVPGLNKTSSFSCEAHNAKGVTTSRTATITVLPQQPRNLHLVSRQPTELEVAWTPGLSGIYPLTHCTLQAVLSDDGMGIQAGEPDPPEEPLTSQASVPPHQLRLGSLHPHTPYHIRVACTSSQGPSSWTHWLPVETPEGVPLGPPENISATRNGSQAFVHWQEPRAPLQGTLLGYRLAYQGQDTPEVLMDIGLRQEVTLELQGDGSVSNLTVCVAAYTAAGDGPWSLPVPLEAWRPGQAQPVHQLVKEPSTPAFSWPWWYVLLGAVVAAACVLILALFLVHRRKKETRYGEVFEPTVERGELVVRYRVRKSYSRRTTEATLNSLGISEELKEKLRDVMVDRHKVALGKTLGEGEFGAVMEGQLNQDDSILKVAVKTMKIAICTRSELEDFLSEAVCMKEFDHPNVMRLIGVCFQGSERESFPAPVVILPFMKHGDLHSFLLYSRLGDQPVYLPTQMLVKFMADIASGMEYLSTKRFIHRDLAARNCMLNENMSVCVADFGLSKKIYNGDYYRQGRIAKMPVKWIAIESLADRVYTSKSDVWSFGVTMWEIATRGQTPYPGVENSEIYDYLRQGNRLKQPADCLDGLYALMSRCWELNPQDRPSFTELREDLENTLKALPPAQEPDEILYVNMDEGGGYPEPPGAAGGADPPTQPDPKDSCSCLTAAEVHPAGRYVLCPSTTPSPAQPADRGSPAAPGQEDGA
Description: [The source words this procedure for another target and reports this target under the same test.] as §1, §2

EC50 (MerTK) [nM] | EC50 (Axl) [nM] | Compound
2.2 | 1.4 | COc1cc2c(Oc3ccc(NC(=O)c4nc(-c5ccccc5)c5ccccc5n4)nc3)ccnc2cc1OCCCN1CCOCC1 [Compound 5, N-(5-((6-Methoxy-7-(3-morpholinopropoxy)quinolin-4-yl)oxy)pyridin-2-yl)-4-phenylquinazoline-2-carboxamide]
311 | 739 | COc1cc2c(Oc3ccc(NC(=O)c4cc(F)ccn4)nc3)ccnc2cc1OCCCN1CCOCC1 [Compound 31, 4-Fluoro-N-(5-((6-methoxy-7-(3-morpholinopropoxy)quinolin-4-yl)oxy)pyridin-2-yl)picolinamide]
90.9 | 228 | COc1cc2c(Oc3ccc(NC(=O)c4cc(N5CCC(O)CC5)ccn4)nc3)ccnc2cc1OCCCN1CCOCC1 [Compound 8, 4-(4-Hydroxypiperidin-1-yl)-N-(5-((6-methoxy-7-(3-morpholino-propoxy)quinolin-4-yl)oxy)pyridin-2-yl)picolinamide, trifluoroacetic acid]
42.7 | 71.7 | COc1cc2c(Oc3ccc(NC(=O)c4nc5ccccc5c(=O)[nH]4)nc3)ccnc2cc1OCCCN1CCOCC1 [Compound 9, N-(5-((6-Methoxy-7-(3-morpholinopropoxy)quinolin-4-yl)oxy)pyridin-2-yl)-4-oxo-3,4-dihydroquinazoline-2-carboxamide, trifluoroacetic acid]
209 | 163 | COc1cc2c(Oc3ccc(NC(=O)c4cc(N5CC(F)(F)C5)ccn4)nc3)ccnc2cc1OCCCN1CCOCC1 [Compound 20, 4-(3,3-difluoroazetidin-1-yl)-N-(5-((6-methoxy-7-(3-morpholinopropoxy)quinolin-4-yl)oxy)pyridin-2-yl)picolinamide]
14.3 | 112 | COc1cc2c(Oc3ccc(NC(=O)c4cccc(N5CCOCC5)n4)nc3)ccnc2cc1OCCCN1CCOCC1 [Compound 25, N-(5-((6-methoxy-7-(3-morpholinopropoxy)quinolin-4-yl)oxy)pyridin-2-yl)-6-morpholinopicolinamide]
640 | 2120 | COc1cc2c(Oc3ccc(NC(=O)c4csc(N5CCC(O)CC5)n4)nc3)ccnc2cc1OCCCN1CCOCC1 [Compound 41, 2-(4-hydroxypiperidin-1-yl)-N-(5-((6-methoxy-7-(3-morpholinopropoxy)quinolin-4-yl)oxy)pyridin-2-yl)thiazole-4-carboxamide]
98 | 114 | COc1cc2c(Oc3ccc(NC(=O)c4cc(N5CC6(CCOCC6)C5)ccn4)nc3)ccnc2cc1OCCCN1CCOCC1 [Compound 18, N-(5-((6-methoxy-7-(3-morpholinopropoxy)quinolin-4-yl)oxy)pyridin-2-yl)-4-(7-oxa-2-azaspiro[3.5]nonan-2-yl)picolinamide]
15.4 | 26.8 | COc1cc2ncnc(Oc3ccc(NC(=O)c4nc(-c5ccccc5)c5c(n4)C4CCN5CC4)nc3)c2cc1OC [Compound 49, N-(5-((6,7-dimethoxyquinazolin-4-yl)oxy)pyridin-2-yl)-4-phenyl-7,8-dihydro-6H-5,8-ethanopyrido[3,2-d]pyrimidine-2-carboxamide]
7.7 | 13.1 | COc1cc2nccc(Oc3ccc(NC(=O)c4nc(-c5ccccc5)c5c(n4)C4CCN5CC4)nc3)c2cc1OC [Compound 38, N-(5-((6,7-dimethoxyquinolin-4-yl)oxy)pyridin-2-yl)-4-phenyl-7,8-dihydro-6H-5,8-ethanopyrido[3,2-d]pyrimidine-2-carboxamide]
430 | 805 | COc1cc2c(Oc3ccc(NC(=O)c4cc(N5CCOCC5)ccn4)nc3)ccnc2cc1OCCCN1CCOCC1 [Compound 14, N-(5-((6-methoxy-7-(3-morpholinopropoxy)quinolin-4-yl)oxy)pyridin-2-yl)-4-morpholinopicolinamide]
12.8 | 20.9 | COc1cc2c(Oc3ccc(NC(=O)c4csc(N5CCCCC5)n4)nc3)ccnc2cc1OCCCN1CCOCC1 [Compound 46, N-(5-((6-methoxy-7-(3-morpholinopropoxy)quinolin-4-yl)oxy)pyridin-2-yl)-2-(piperidin-1-yl)thiazole-4-carboxamide]
5 | 3 | COc1cc2c(Oc3ccc(NC(=O)c4nc(-c5ccccc5)c5c(n4)C4CCN5CC4)nc3)ccnc2cc1OCCCN1CCOCC1 [Compound 35, N-(5-((6-methoxy-7-(3-morpholinopropoxy)quinolin-4-yl)oxy)pyridin-2-yl)-4-phenyl-7,8-dihydro-6H-5,8-ethanopyrido[3,2-d]pyrimidine-2-carboxamide]
20.2 | 53.8 | COc1cc2c(Oc3ccc(NC(=O)c4cc(N5CCCCC5)ccn4)nc3)ccnc2cc1OCCCN1CCOCC1 [Compound 13, N-(5-((6-methoxy-7-(3-morpholinopropoxy)quinolin-4-yl)oxy)pyridin-2-yl)-4-(piperidin-1-yl)picolinamide]
505 | 568 | COc1cc2c(Oc3ccc(NC(=O)c4cc(N5CC6(COC6)C5)ccn4)nc3)ccnc2cc1OCCCN1CCOCC1 [Compound 19, N-(5-((6-methoxy-7-(3-morpholinopropoxy)quinolin-4-yl)oxy)pyridin-2-yl)-4-(2-oxa-6-azaspiro[3.3]heptan-6-yl)picolinamide]
183 | 327 | COc1cc2c(Oc3ccc(NC(=O)c4cc(C(F)(F)F)ccn4)nc3)ccnc2cc1OCCCN1CCOCC1 [Compound 34, N-(5-((6-Methoxy-7-(3-morpholinopropoxy)quinolin-4-yl)oxy)pyridin-2-yl)-4-(trifluoromethyl)picolinamide]
102 | 84.9 | COc1cc2c(Oc3ccc(NC(=O)c4cccc(N5CCC(C)(C)CC5)n4)nc3)ccnc2cc1OCCCN1CCOCC1 [Compound 27, 6-(4,4-dimethylpiperidin-1-yl)-N-(5-((6-methoxy-7-(3-morpholinopropoxy)quinolin-4-yl)oxy)pyridin-2-yl)picolinamide]
27.9 | 43.2 | COc1cc2c(Oc3ccc(NC(=O)c4cc(N5CCCC5)ccn4)nc3)ccnc2cc1OCCCN1CCOCC1 [Compound 16, N-(5-((6-methoxy-7-(3-morpholinopropoxy)quinolin-4-yl)oxy)pyridin-2-yl)-4-(pyrrolidin-1-yl)picolinamide]
